Laboratory results from patent US11198869B2, “Angelman syndrome antisense treatment” (The Texas A&M University System, priority 2017, dated 2021).

Tested on: UBE3A
Assay: UBE3A steady state RNA (qRT-PCR) in GABAergic iPSC-derived neurons
Type: cell-based, human
Conditions: for Difference, UBE3A RNA level: ASOs 10 μM; for effect on UBE3A RNA levels (in words): treated 29 DIV, RNA 35 DIV, 10-point dose curve; for increase of UBE3A RNA levels: 10 μM
Experimental: Human-specific ASOs were then designed to target this region, which included four ASOs targeting non-polymorphic regions in human and regions conserved (100%) with macaque (Rhesus and Cynomolgus) (Table 7 and FIG. 3A). Human induced pluripotent stem cell (iPSC) neural precursor cells were differentiated into GABAergic neurons for 14 DIV and then treated with a control ASO [ASO-C (10 μM, n=3)], Topotecan [Topo (1 μM, n=2)], and six ASOs targeting UBE3A-AS [ASO-1, ASO-2, ASO-3, ASO-4, ASO-5, and ASO-6 (10 μM, n=3)]. Additionally, an ASO targeting an intronic region downstream of SNORD109B was included (ASO-7). Six days post-treatment (20 DIV), RNA was isolated from the neurons and the steady state RNA levels of UBE3A-AS and UBE3A were estimated relative to the control treatment (FIG. 3B).
The effects of ASO-4 and Topotecan were then examined on the SNORD116, IPW, SNORD115, and SNORD109A RNAs, which are located upstream of the ASO-4 target region (see FIG. 1A).
The potency of ASO-4 was further examined in iPSC-derived neurons at a later time point in differentiation. GABAergic iPSC-derived neurons were treated at 59 DIV with a control ASO [ASO-C, 10 μM (n=3)] and ASO-4 [1 uM, 5 μM, and 10 μM (n=3)], and the steady state RNA levels of UBE3A-AS and UBE3A were measured as described above (FIG. 4G). Unlike neurons treated with ASO-4 at an earlier time point, the RNA levels of UBE3A and UBE3A-AS were highly inversely correlated (FIGS. 4H and 4I). For example, the effect of ASO-4 (10 μM) on UBE3A-AS RNA levels was similar between neurons treated at 14 and 59 DIV [20 DIV: UBE3A-AS: ↓87% (95% confidence intervals (CI): 80 to 95%); 65 DIV: ↓81% (95% CI: 74 to 88%)], whereas the effect of ASO-4 on UBE3A RNA levels was substantially larger in neurons treated at 59 DIV [20 DIV: ↑30% (95% CI: 16 to 44%); 65 DIV: ↑86% (95% CI: 59% to 113%)].
The potency of ASO-4 and ASO-6.1 was further examined in iPSC-derived neurons at a later time point in differentiation. GABAergic iPSC-derived neurons were treated at 29 DIV with a 10-point ½ log dose response curve of ASO-4 and ASO-6.1 [1 nM, 3 nM, 10 nM, 30 nM, 100 nM, 300 nM, 1 μM, 3 μM, 10 μM, and 30 μM (n=3)]. At 35 DIV, the IC50 and Emax of each ASO was estimated as described above (FIG. 5C-D and Table 14). The dose response curves of ASO-4 and ASO-6.1 were not similar (Parallelism test: F(3,172)=22.7, p<0.0001).
GABAergic and glutamatergic induced pluripotent stem cell (iPSC) derived neural precursor cells (NRC-100-010-001 and GNC-301-030-001, Cellular Dynamics International, Madison Wis.) were differentiated into neurons according to the manufactures protocol. Briefly, neural precursor cells were thawed and resuspended in chemically defined medium and added to sterile-culture plates coated with poly-D-lysine and laminin. The medium was replaced 24 hr after plating and then one-half of the medium was replaced every 3-5 days afterwards.
For cultured iPSC-derived neurons, RNA isolation and cDNA synthesis were performed using the Cell-to-CT kit (Thermo Fisher Scientific) in a lysate volume of 55 μl.
The steady state RNA levels of target transcripts were measured using TaqMan quantitative reverse-transcription PCR (qRT-PCR) assays. Total reaction volume was 10 uL, including 2 μl of cDNA, 1× Gene Expression Master mix (4369016, Thermo Fisher Scientific, Waltham, Mass.), and 1× TaqMan primer assay (Thermo Fisher Scientific). Cycling conditions were 2 minutes at 50° C., 10 minutes at 95° C., and 40 cycles of 15 seconds at 95° C. and 1 minute at 60° C., with readings taken at the 60° C. step of every cycle. Reactions were run on a BIO-RAD T1000 CFX96 thermocycler (Bio-Rad Laboratories, Hercules Calif.), with internal control (PPIA, Hs99999904_m1, Thermo Fisher Scientific) and target [UBE3A-AS, Hs01372957_m1; SNORD116-11, Hs04275268_gH; SNORD115, Hs04275288_gH; IPW, Hs03455409_s1; SNORD109A/B, AP47WVR (Thermo Fisher Scientific); UBE3A: forward […] (SEQ ID NO:500); reverse: […]

[1] = Topo 1 μM, 14 DIV to 20 DIV, labelled treatment minus ASO-3
[2] = Topo 1 μM, 14 DIV to 20 DIV, labelled treatment minus ASO-5
[3] = Topo 1 μM, 14 DIV to 20 DIV, labelled treatment minus ASO-6
[4] = Topo 1 μM, 14 DIV to 20 DIV, labelled treatment minus ASO-R
[5] = Topo 1 μM, treated 14 DIV, RNA 20 DIV, normalized to ASO-C, labelled treatment minus ASO-C
[6] = 14 DIV to 20 DIV, labelled treatment minus ASO-1
[7] = 14 DIV to 20 DIV, labelled treatment minus Topo (1 μM)

Row | Molecule | Difference, UBE3A RNA level [1] | Difference, UBE3A RNA level [2] | Difference, UBE3A RNA level [3] | Difference, UBE3A RNA level [4] | Difference, UBE3A RNA level [5] | effect on UBE3A RNA levels (in words) | Difference, UBE3A RNA level [6] | Difference, UBE3A RNA level [7] | increase of UBE3A RNA levels (treated 14 DIV, RNA 20 DIV) [%] | increase of UBE3A RNA levels (treated 59 DIV, RNA 65 DIV) [%] | Difference, UBE3A RNA level (14 DIV to 20 DIV, labelled treatment minus ASO-2)
1 | CC[C@@]1(O)C(=O)OCc2c1cc1n(c2=O)Cc2cc3c(CN(C)C)c(O)ccc3nc2-1 [Topotecan, reference compound] | 0.05 | 0.02 | 0.02 | 0.18 | 0.18 |  |  |  |  |  | 
2 | C^O*U^O*G^O*G^O*t*g*t*c*a*a*c*a*a*g*C^O*C^O*A^O*A^O [ASO-6.1] |  |  |  |  |  | increasing RNA levels in dose dependent manner |  |  |  |  | 
3 | G^O*U^O*A^O*C^O*U^O*c*t*t*c*c*t*c*a*g*t*C^O*A^O*U^O*C^O*C^O [ASO-2] | 0.08 | 0.05 | 0.05 | 0.21 | 0.21 |  | 0.03 | 0.03 |  |  | 
4 | U^O*A^O*G^O*A^O*A^O*t*g*g*c*a*c*a*t*c*t*C^O*U^O*U^O*G^O*G^O [ASO-4] | 0.17 | 0.13 | 0.13 | 0.29 | 0.30 | increasing RNA levels in dose dependent manner | 0.11 | 0.11 | 30 | 86 | 0.08
